Data on 5 molecules can be found in paper PMC9409043, “Serotonin 5-HT6 Receptor Ligands and Butyrylcholinesterase Inhibitors Displaying Antioxidant Activity—Design, Synthesis and Biological Evaluation of Multifunctional Agents against Alzheimer’s Disease” (International Journal of Molecular Sciences, 2022).

Several values for one entry are separate records, joined by “and”; a condition that tells them apart may be missing. Identical values can stand only once.

One data set addresses T1, human 5-HT6 receptor (Homo sapiens, UniProt P50406).
T1 construct: purchased PerkinElmer; host or cells: CHO-K1 cells, stably transfected (membrane preparation)
Description: 5-HT6 receptor radioligand binding assay ([3H]-LSD, CHO-K1 membranes). The protocol: 5-HT6R binding affinity and cholinesterase (AChE/BuChE) inhibitory activity. We evaluated the pharmacological properties of the final compounds 12–19 in vitro according to the previously described, well-established protocols. Their affinities for recombinant human 5-HT6 receptors (h5-HT6R) were tested in a radioligand binding assay and the inhibitory potencies against human recombinant AChE (hAChE) and BuChE isolated from human plasma (hBuChE) in the spectrophotometric Ellman’s assay. […].
We prepared 10 mM of stock solutions of tested compounds in DMSO. Serial dilutions of compounds were prepared in a 96-well microplate in assay buffers using the automated pipetting system epMotion 5070 (Eppendorf). Each compound was tested in 8 concentrations from 10^−5 to 10^−12 M (final concentration).
The radioligand binding assay was performed using membranes from CHO-K1 cells stably transfected with the human 5-HT6 receptor (PerkinElmer) according to the previously described procedure. All assays were carried out in duplicates. We prepared 50 µL working solution of the tested compounds, 50 µL [^3H]-LSD (final concentration 2.5 nM) and 150 µL diluted membranes (15 µg protein per well) in assay buffer (50 mM Tris, pH 7.4, 10 mM MgCl2, 0.1 mM EDTA) and transferred them to polypropylene 96-well microplates using a 96-well pipetting station Rainin Liquidator (MettlerToledo). Methiothepin (10 μM) was used to define nonspecific binding. The microplate was covered with sealing tape, mixed and incubated for 60 min at 27 °C. The reaction was terminated by rapid filtration through GF/B filter mate presoaked with 0.5% polyethyleneimine for 30 min. Ten rapid washes with 200 µL 50 mM Tris buffer (4 °C, pH 7.4) were performed using the automated harvester system Harvester-96 MACH III FM (Tomtec). The filter mates were dried at 37 °C in a forced air fan incubator and then solid scintillator MeltiLex was melted on filter mates at 90 °C for 5 min. Radioactivity was counted in MicroBeta2 scintillation counter (PerkinElmer). Data were fitted to a one-site curve-fitting equation with Prism 6 (GraphPad Software) and Ki values were estimated from the Cheng−Prusoff equation.

The nature of data set [1]: ABTS free radical scavenging assay. From the text: Antioxidant activity. As mentioned before, oxidative stress is one of the components of AD pathomechanism and is characterised by an imbalance in the production of ROS. One of the mechanisms by which antioxidants reduce the concentration of ROS and therefore prevent or slow the cell damage caused by free radicals is scavenging them. Thus, we tested the scavenging ability of compounds 12–19 in the spectrophotometric ABTS assay that we used before. In this assay, the ability of compounds to scavenge ABTS^• radicals, which are generated from 2,2’-azino-bis(3-ethylbenzothiazoline-6-sulphonic acid) (ABTS), is measured. We tested the compounds at three concentrations: 30, 75 and 150 μM after 5, 30 and 60 min of incubation using Trolox, a water-soluble vitamin E analogue, as a reference (Table S1 in Supporting information).
The spectrophotometric ABTS assay was performed in 96-well microplates with the reagents purchased from Sigma-Aldrich (Steinheim, Germany) according to the previously described procedure. Stock solutions of the tested compounds (6.4 mM) and reagents were prepared in DMSO and water, respectively. 2,2′-Azino-bis(3-ethylbenzothiazoline-6-sulfonic acid) free radical (ABTS^•) was prepared by mixing the stock solution of ABTS (7 mM) and […] (2.45 mM) in ratio 1:1. The mixture was kept in the dark at 4 °C for 16 h. The obtained solution of (ABTS^•) was diluted with water 20 times. Then, the test compound or water or mixture of DMSO/water in the appropriate ratio (0.02 mL) was added to ABTS^• solution (0.18 mL). The three concentrations of the test compounds and Trolox were tested in triplicate: 0.15, 0.075 and 0.03 mM. Changes in absorbance were measured at 734 nm after 5, 30 and 60 min, using a microplate reader (SPECTROstar Nano; BMG Labtech, Ortenberg, Germany). Based on the equation ((A0 − A)/A0) × 100% (where A0 and A were the absorbances without and with the test compound, respectively) the percentage of free radical scavenging activity was calculated. The results are presented as mean ± SD.

The target in data set [2] is T2, BuChE isolated from human plasma (hBuChE) (Homo sapiens, UniProt P06276).
T2 construct: BuChE isolated from human plasma (hBuChE); tissue Vivonics (Bedford, MA, USA), donated; host or cells: human plasma
Description: biochemical. Type of data set: biochemical. Particulars: for IC50: mean ± SEM of at least three experiments. The protocol:
(§1) 5-HT6R binding affinity and cholinesterase (AChE/BuChE) inhibitory activity. […] Their affinities for recombinant human 5-HT6 receptors (h5-HT6R) were tested in a radioligand binding assay and the inhibitory potencies against human recombinant AChE (hAChE) and BuChE isolated from human plasma (hBuChE) in the spectrophotometric Ellman’s assay.
(§2) The assay was based on spectrophotometric Ellman’s method and was performed in 96-well microplates with the reagents purchased from Sigma-Aldrich (Steinheim, Germany) according to the previously described procedure. hBuChE was kindly donated by Vivonics (Bedford, MA, USA). […] After 5 minutes of the enzymatic reaction, the changes in absorbance were measured at 412 nm, using a microplate reader (SPECTROstar Nano; BMG Labtech, Ortenberg, Germany). First, compounds were tested at the screening concentration of 10 µM. Based on the equation 100 − (S/B) × 100 (where S and B were the respective enzyme activities with and without the test sample, respectively) the percentage inhibition of each enzyme for each compound was calculated. […] The IC50 values were calculated using nonlinear regression (GraphPad Prism 5; GraphPad Software, San Diego, CA, USA) by plotting the residual enzyme activities against the applied inhibitor concentration. […] All experiments were performed in triplicate.

In data set [3] the target is T3, human recombinant AChE (hAChE) (Homo sapiens, UniProt P22303).
T3 construct: purchased Sigma-Aldrich (Steinheim, Germany)
Briefly: biochemical. Particulars: for IC50: mean ± SEM of at least three experiments. The protocol:
as §1, §2

Data set [4] in a line: Metabolic stability in human liver microsomes. It is filed as in vitro ADME. The protocol:
Metabolic stability. […] For detailed results, including UPLC chromatograms and MS spectra, see the Supporting information (Figures S1–S16).
The metabolic stability was evaluated by incubation of compounds with human liver microsomes (Sigma-Aldrich, St. Louis, MO, USA) in 10 mM Tris–HCl buffer (pH 7.4) at 37 °C for 120 min in the presence of NADPH Regeneration System (Promega, Madison, WI, USA). The percentage of the remaining substrate and the most probable metabolic pathways were estimated by UPLC-MS analyses of the reaction mixtures.
On the technique in general: Microsomes from liver hold many membrane-bound enzymes, among them those of drug oxidation.

Data set [5] in a line: Metabolic stability in mouse liver microsomes. It is filed as in vitro ADME. The following applies: 2 h, pH 7.4.
The next data set concerns the target T4, CYP2D6 (Homo sapiens, UniProt P10635).
T4 construct: purchased Promega, Madison, WI, USA
Description: CYP P450-Glo luminescence assay, CYP2D6. Particulars: human, CYP2D6 enzyme in the luminescent P450-Glo assay (Promega); 0.1 µM. Type of data set: in vitro ADME. From the text: Influence on CYP3A4 and CYP2D6 activity. Possible drug–drug interactions (DDIs) are an important issue for elderly patients, who are usually on multiple medications. They may result, among other things, from the interactions (inhibition or activation) of the cytochrome P450 isoenzymes, especially CYP3A4 and CYP2D6, which play the most significant role in drugs’ biotransformation. Therefore, to predict the potential influence of the studied compounds (14, 16 and 19) on the metabolism of other drugs, we used the CYP450 inhibition luminescence assay (Promega). […]. […] […]. […] […].
The influence on CYP 3A4 and 2D6 activity was estimated by respective luminescent CYP P450-Glo™ assay (Promega®, Madison, WI, USA). The compounds were tested in the concentration range of 0.1–25 µM. The results were compared to the respective reference CYP inhibitors: ketoconazole and quinidine.

T3 sequence (P22303 32-614): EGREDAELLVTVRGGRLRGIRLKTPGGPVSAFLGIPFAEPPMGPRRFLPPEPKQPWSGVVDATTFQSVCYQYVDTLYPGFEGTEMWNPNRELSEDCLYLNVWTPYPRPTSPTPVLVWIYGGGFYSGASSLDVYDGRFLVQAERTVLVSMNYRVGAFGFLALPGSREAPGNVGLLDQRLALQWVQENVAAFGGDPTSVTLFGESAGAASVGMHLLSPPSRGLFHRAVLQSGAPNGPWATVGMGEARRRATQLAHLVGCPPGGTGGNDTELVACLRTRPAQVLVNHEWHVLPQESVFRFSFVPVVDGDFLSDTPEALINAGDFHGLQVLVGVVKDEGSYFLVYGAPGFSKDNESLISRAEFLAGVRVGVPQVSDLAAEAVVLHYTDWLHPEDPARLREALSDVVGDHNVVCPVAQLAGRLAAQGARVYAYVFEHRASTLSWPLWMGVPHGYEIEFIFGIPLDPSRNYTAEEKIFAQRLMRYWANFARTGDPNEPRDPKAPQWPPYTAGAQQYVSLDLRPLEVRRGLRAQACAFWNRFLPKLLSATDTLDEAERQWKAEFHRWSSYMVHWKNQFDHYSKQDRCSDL
T1 sequence (P50406 whole entry): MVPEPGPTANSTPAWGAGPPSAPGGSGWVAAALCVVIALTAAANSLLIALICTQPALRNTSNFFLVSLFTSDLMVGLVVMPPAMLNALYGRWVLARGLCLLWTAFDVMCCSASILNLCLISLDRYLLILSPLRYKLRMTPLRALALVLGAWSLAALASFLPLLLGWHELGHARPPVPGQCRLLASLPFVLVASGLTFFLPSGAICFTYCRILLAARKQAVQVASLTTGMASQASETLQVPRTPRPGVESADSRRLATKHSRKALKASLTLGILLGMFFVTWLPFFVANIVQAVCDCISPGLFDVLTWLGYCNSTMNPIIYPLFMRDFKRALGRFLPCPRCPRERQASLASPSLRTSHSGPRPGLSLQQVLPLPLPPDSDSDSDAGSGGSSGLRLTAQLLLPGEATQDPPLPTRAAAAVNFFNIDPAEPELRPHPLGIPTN
T2 sequence (P06276 29-602): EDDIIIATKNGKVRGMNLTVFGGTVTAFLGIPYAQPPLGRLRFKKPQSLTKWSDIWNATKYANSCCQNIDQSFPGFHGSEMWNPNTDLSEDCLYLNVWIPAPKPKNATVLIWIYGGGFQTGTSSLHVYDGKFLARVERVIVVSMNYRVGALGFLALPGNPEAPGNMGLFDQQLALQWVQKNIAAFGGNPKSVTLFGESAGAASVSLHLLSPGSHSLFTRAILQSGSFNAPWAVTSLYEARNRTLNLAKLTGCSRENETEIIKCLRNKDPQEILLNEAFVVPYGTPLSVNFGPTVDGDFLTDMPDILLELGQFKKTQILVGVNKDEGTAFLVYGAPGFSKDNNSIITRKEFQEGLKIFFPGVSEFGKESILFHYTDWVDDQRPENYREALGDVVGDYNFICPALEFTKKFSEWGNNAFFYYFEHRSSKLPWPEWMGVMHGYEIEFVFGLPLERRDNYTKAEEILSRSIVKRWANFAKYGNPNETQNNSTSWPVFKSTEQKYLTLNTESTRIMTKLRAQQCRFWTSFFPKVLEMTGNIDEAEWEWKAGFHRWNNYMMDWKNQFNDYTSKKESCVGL
T4 sequence (P10635 whole entry): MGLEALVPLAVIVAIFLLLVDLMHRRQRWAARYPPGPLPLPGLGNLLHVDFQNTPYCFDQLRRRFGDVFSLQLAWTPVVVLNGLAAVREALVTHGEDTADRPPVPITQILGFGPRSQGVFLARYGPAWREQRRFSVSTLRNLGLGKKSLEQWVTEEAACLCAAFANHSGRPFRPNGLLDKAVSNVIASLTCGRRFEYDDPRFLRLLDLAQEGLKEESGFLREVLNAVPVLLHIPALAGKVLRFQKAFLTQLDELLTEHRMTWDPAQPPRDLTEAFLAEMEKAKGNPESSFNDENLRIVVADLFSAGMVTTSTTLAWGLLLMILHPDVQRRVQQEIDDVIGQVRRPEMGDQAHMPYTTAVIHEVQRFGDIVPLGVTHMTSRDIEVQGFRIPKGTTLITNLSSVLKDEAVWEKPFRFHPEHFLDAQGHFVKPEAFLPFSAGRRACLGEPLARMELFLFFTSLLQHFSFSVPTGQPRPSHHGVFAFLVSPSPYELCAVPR

The term Ki denotes the dissociation constant of the complex between target and ligand, obtained from inhibition or displacement. Read a high Ki as a looser hold on the target. A word on the IC50: it is the concentration needed to halve the response being measured. Take `O=S(=O)(c1ccccc1)n1ccc2c(OCCNCC3CCN(Cc4ccccc4)CC3)cccc21` [Compound 12, N-((1-Benzylpiperidin-4-yl)methyl)-2-((1-(phenylsulfonyl)-1H-indol-4-yl)oxy)ethan-1-amine]: the inhibition constant Ki on human 5-HT6 receptor is 21 ± 1 nM. The “% of ABTS• reduction ± SD” value in data set [1] (30 µM, 5 min) turned out to be 8±1%; in data set [1] (30 µM, 30 min) it was 9±0%; in data set [1] (30 µM, 60 min), 10±0%; in data set [1] (75 µM, 5 min), 13±0%; in data set [1] (75 µM, 30 min), 19±0%; in data set [1] (75 µM, 60 min), 24±1%. For the same molecule, the “% of ABTS• reduction ± SD” value is listed as 20±3% in data set [1] (150 µM, 5 min); 30±3% in data set [1] (150 µM, 30 min); 39±4% in data set [1] (150 µM, 60 min). The IC50 was 2300 nM and 2320 nM in data set [2]; 3150 ± 81 nM in data set [3].

As for `O=S(=O)(c1ccccc1)n1ccc2c(OCCNCCC3CCN(Cc4ccccc4)CC3)cccc21` [Compound 13, 2-(1-Benzylpiperidin-4-yl)-N-(2-((1-(phenylsulfonyl)-1H-indol-4-yl)oxy)ethyl)ethan-1-amine], the Ki on human 5-HT6 receptor came out at 17 ± 2 nM. For the same molecule, the “% of ABTS• reduction ± SD” value is 5±1% in data set [1] (30 µM, 5 min); 5±1% in data set [1] (30 µM, 30 min); 6±1% in data set [1] (30 µM, 60 min); 9±1% in data set [1] (75 µM, 5 min); 11±1% in data set [1] (75 µM, 30 min); 13±1% in data set [1] (75 µM, 60 min). Further, the “% of ABTS• reduction ± SD” value in data set [1] (150 µM, 5 min) was 20±0%; in data set [1] (150 µM, 30 min), 29±1%; in data set [1] (150 µM, 60 min) it was 34±1%. Moreover, the IC50 in data set [2] came to 1110 ± 31 nM; in data set [3], 2260 ± 91 nM.

As a reminder, the inhibition is the change of the read-out against control, counted positive when it falls. As to `O=S(=O)(c1ccccc1)N1CCc2c(OCCNCCCC3CCN(Cc4ccccc4)CC3)cccc21` [Compound 16, 3-(1-Benzylpiperidin-4-yl)-N-(2-((1-(phenylsulfonyl)indolin-4-yl)oxy)ethyl)propan-1-amine], at human 5-HT6 receptor, the inhibition constant Ki worked out at 598 ± 19 nM. Further, the “% of ABTS• reduction ± SD” value in data set [1] (30 µM, 5 min) was found to be 7±0%; in data set [1] (30 µM, 30 min), 7±1%; in data set [1] (30 µM, 60 min), 7±1%; in data set [1] (75 µM, 5 min), 7±2%; in data set [1] (75 µM, 30 min) it was 9±2%; in data set [1] (75 µM, 60 min), 11±3%. Moreover, the “% of ABTS• reduction ± SD” value in data set [1] (150 µM, 5 min) worked out at 10±0%; in data set [1] (150 µM, 30 min) it was 19±1%; in data set [1] (150 µM, 60 min) it was 24±1%. Further, the main metabolic pathway entry in data set [4] is on record as “oxidative deamination”. Besides, the “HLMs % Left” value in data set [4] (human, 2 h, pH 7.4) is 84.40%. Moreover, the IC50 was determined as 487 ± 12 nM in data set [2] and 821 ± 14 nM in data set [3]. In addition, the “MLMs % Left” value in data set [5] turned out to be 84.48%. The molecule further showed an inhibition at 0.1 µM against CYP2D6 of approximately 20%.

As for `O=c1[nH]c2c(OCCNCC3CCN(Cc4ccccc4)CC3)cccc2n1Cc1ccccc1` [Compound 17, 1-Benzyl-4-(2-(((1-benzylpiperidin-4-yl)methyl)amino)ethoxy)-1,3-dihydro-2H-benzo[d]imidazol-2-one], on human 5-HT6 receptor, the inhibition constant Ki came to 136 ± 22 nM. Besides, the “% of ABTS• reduction ± SD” value was 8±2% in data set [1] (30 µM, 5 min); 14±3% in data set [1] (30 µM, 30 min); 18±4% in data set [1] (30 µM, 60 min); 12±2% in data set [1] (75 µM, 5 min); 22±2% in data set [1] (75 µM, 30 min); 27±1% in data set [1] (75 µM, 60 min). The “% of ABTS• reduction ± SD” value came to 19±2% in data set [1] (150 µM, 5 min); 32±2% in data set [1] (150 µM, 30 min); 39±2% in data set [1] (150 µM, 60 min). Also, the inhibition at 10 µM in data set [2] (10 µM concentration) came out at 44.3%; in data set [3] (10 µM concentration) it was 39.5%.

For the molecule `Cc1c(C)c2c(c(C)c1O)CCC(C)(C(=O)O)O2` (stereo not shown) [Trolox, reference compound], the “% of ABTS• reduction ± SD” value in data set [1] (30 µM, 5 min) was 59±2%; in data set [1] (30 µM, 30 min) it was 59±2%; in data set [1] (30 µM, 60 min) it was 59±2% and 59%; in data set [1] (75 µM, 5 min) it was 100±0%; in data set [1] (75 µM, 30 min), 100±0%; in data set [1] (75 µM, 60 min), 100%. The “% of ABTS• reduction ± SD” value in data set [1] (150 µM, 5 min) was 100±0%; in data set [1] (150 µM, 30 min) it was 100±0%; in data set [1] (150 µM, 60 min), 100±0% and 100%.
